Series [1] relates to Plasmodium chabaudi. Nature of the series: Antimalarial activity against Plasmodium chabaudi chabaudi infected in mouse assessed as reduction in parasitemia at 7.1 mg/day administered as infusion on days 4 to 6. The series is classed as functional, organism-based.
Series [2] has as its system Plasmodium falciparum. Description: Antimalarial activity against Plasmodium falciparum FCR3 after 72 hrs by lactate dehydrogenase assay. Type of series: functional. Particulars: FCR-3/Gambia.
The subject of series [3] is Plasmodium falciparum. Description: Antimalarial activity against mature-stage Plasmodium falciparum assessed as decrease in viability at 4 uM incubated for 3 hrs followed by compound washout measured after 48 hrs by SYBR-Green staining-based fluorescence analysis relative to untreated control. The series is classed as functional, organism-based.
The subject of series [4] is CHO. Description: Cytotoxicity against CHO cells at 5 to 250 uM after 48 hrs by MTT assay in presence of uridine. The series is classed as cell-based, Cricetulus griseus. The settings on record: chinese hamster. In general terms: Tetrazolium dyes change colour on reduction, which living cells bring about.
The nature of series [5]: Selectivity index for Plasmodium falciparum over Plasmodium berghei in presence of uridine. Type of series: functional.
In series [6] the test system is Mus musculus. Nature of the series: Toxicity against BALB/c mouse infected with Plasmodium berghei assessed as loss in body weight at 6 mg/dose, ip in presence of uridine. Type of series: organism-based. Particulars: in vivo.
For series [7], the system named is Mus musculus. Nature of the series: Toxicity against BALB/c mouse infected with Plasmodium berghei assessed as loss in body weight at 12 mg/dose, ip in presence of uridine. The series is classed as organism-based. The settings on record: in vivo.
Series [8] deals with Mus musculus. Nature of the series: Toxicity against BALB/c mouse infected with Plasmodium berghei assessed as loss in body weight at 3 mg/dose, ip in presence of uridine. The series is classed as organism-based. Particulars: in vivo.
Series [9] relates to Plasmodium berghei. Nature of the series: Antimalarial activity against Plasmodium berghei infected in BALB/c mouse assessed as reduction in parasitemia at 3 mg/dose, ip on days 5 to 7. The series is classed as functional, organism-based.
For series [10], the system named is Plasmodium berghei. Description: Antimalarial activity against Plasmodium berghei infected in BALB/c mouse assessed as reduction in parasitemia at 3 mg/dose, ip on days 5 to 7 in presence of uridine. Type of series: functional, organism-based.
In series [11] the test system is Plasmodium berghei. Nature of the series: Antimalarial activity against Plasmodium berghei infected in BALB/c mouse assessed as reduction in parasitemia at 6 to 12 mg/dose, ip on days 5 to 7. The series is classed as functional, organism-based.
Series [12] has as its system Plasmodium berghei. Nature of the series: Antimalarial activity against Plasmodium berghei infected in BALB/c mouse assessed as reduction in parasitemia at 6 to 12 mg/dose, ip on days 5 to 7 in presence of uridine. Type of series: functional, organism-based.
Series [13] concerns Plasmodium chabaudi. Nature of the series: Antimalarial activity against Plasmodium chabaudi chabaudi infected in BALB/c mouse assessed as reduction in parasitemia at 6 mg/day administered as infusion on days 4 to 6 measured on days 10 to 13. Type of series: functional, organism-based.
Series [14] concerns Plasmodium chabaudi. Description: Antimalarial activity against Plasmodium chabaudi chabaudi infected in BALB/c mouse assessed as reduction in parasitemia at 6 mg/day administered as infusion on days 4 to 6 measured on days 10 to 13 in presence of uridine. The series is classed as functional, organism-based.
Series [15] relates to Plasmodium berghei. Nature of the series: Antimalarial activity against Plasmodium berghei infected in mouse assessed as reduction of parasitemia at 50 ug/dose, ip on days 4 to 7. The series is classed as functional, organism-based.
The subject of series [16] is Plasmodium chabaudi. Description: Antimalarial activity against Plasmodium chabaudi chabaudi infected in mouse at 6 mg/day administered as infusion on days 4 to 6 relative to untreated control. Type of series: functional, organism-based.
Series [17] has as its system Plasmodium falciparum. Nature of the series: Antimalarial activity against ring-stage Plasmodium falciparum assessed as decrease in viability at 4 uM incubated for 3 hrs followed by compound washout measured after 48 hrs by SYBR-Green staining-based fluorescence analysis relative to untreated control. Type of series: functional, organism-based.
Series [18] is described as follows: Hemolytic activity against human erythrocytes at 250 uM. The series is classed as ADME, cell-based. The settings on record: erythrocyte.
The next series deals with C32. Nature of the series: Cytotoxicity against human C32 cells after 48 hrs by MTT assay in presence of uridine. The series is classed as cell-based. Particulars: c32, 48 h.
The test system of series [19] is Plasmodium falciparum. Nature of the series: Growth inhibition of Plasmodium falciparum at >250 uM after 72 hrs by lactate dehydrogenase assay in absence of uridine. Type of series: functional, organism-based.
Series [20] in a line: Therapeutic index, ratio of IC50 for CHO cells to IC50 for Plasmodium falciparum in absence of uridine. The series is classed as cell-based. Particulars: hamster, CHO cells versus Plasmodium falciparum; read-out: Ratio IC50.
Series [21] relates to Plasmodium falciparum. Description: Antimalarial activity against Plasmodium falciparum after 72 hrs by lactate dehydrogenase assay in absence of uridine. Type of series: functional, organism-based.
Series [22] in a line: Therapeutic index, ratio of IC50 for CHO cells to IC50 for Plasmodium falciparum in presence of uridine. The series is classed as cell-based. The settings on record: hamster, CHO cells versus Plasmodium falciparum; read-out: Ratio IC50.
Series [23] relates to Plasmodium falciparum. Nature of the series: Antimalarial activity against Plasmodium falciparum after 72 hrs by lactate dehydrogenase assay in presence of uridine. Type of series: functional, organism-based.
In series [24] the test system is CHO. Description: Cytotoxicity against CHO cells assessed as growth inhibition after 48 hrs by MTT assay in absence of uridine. Type of series: cell-based. Particulars: Cricetulus griseus.
Series [25] has as its system Plasmodium chabaudi. Nature of the series: Antimalarial activity against Plasmodium chabaudi chabaudi infected in ip dosed BALB/C mouse. Type of series: functional, organism-based.
In series [26] the test system is Plasmodium berghei. Nature of the series: Antimalarial activity against Plasmodium berghei infected in ip dosed BALB/C mouse. Type of series: functional, organism-based.
The test system of series [27] is Plasmodium falciparum. Nature of the series: Antimalarial activity against chloroquine/multidrug-resistant Plasmodium falciparum SB after 72 hrs by lactate dehydrogenase assay. Type of series: functional, organism-based.
The subject of series [28] is Plasmodium falciparum. Nature of the series: Antimalarial activity against chloroquine/multidrug-resistant Plasmodium falciparum MB after 72 hrs by lactate dehydrogenase assay. Type of series: functional, organism-based.
Series [29] relates to Plasmodium falciparum. Description: Antimalarial activity against chloroquine/mefloquine-resistant Plasmodium falciparum KC98358 after 72 hrs by lactate dehydrogenase assay. The series is classed as functional, organism-based. The settings on record: KC98358, 72 h.
For series [30], the system named is Plasmodium falciparum. Description: Antimalarial activity against chloroquine/mefloquine-resistant Plasmodium falciparum KC98 after 72 hrs by lactate dehydrogenase assay. The settings on record: KC98, 72 h. The series is classed as functional, organism-based.
For series [31], the system named is Plasmodium falciparum. Description: Antimalarial activity against chloroquine-resistant Plasmodium falciparum ItG after 72 hrs by lactate dehydrogenase assay. The series is classed as functional, organism-based.
Series [32] has as its system Plasmodium falciparum. Nature of the series: Antimalarial activity against Plasmodium falciparum 3D7 after 72 hrs by lactate dehydrogenase assay. Type of series: functional, organism-based. The settings on record: 3D7, 72 h.
The test system of series [33] is Plasmodium berghei. Nature of the series: Antimalarial activity against Plasmodium berghei infected in mouse assessed as reduction of parasitemia at 8 mg/dose, ip on days 4 to 7 relative to untreated control. The series is classed as functional, organism-based.
In series [34] the test system is Plasmodium chabaudi. Description: Antimalarial activity against Plasmodium chabaudi chabaudi infected in mouse assessed as reduction in parasitemia at 6.9 mg/day administered as infusion on days 4 to 6. Type of series: functional, organism-based.

Activity calls are given as the source filed them. The calls are words filed in the database; no cut-off is given here.

This note sets out measurements from ChEMBL document CHEMBL2331468, “Antimalarial activities of 6-iodouridine and its prodrugs and potential for combination therapy” (J Med Chem, 2013).

For orientation: IC50 means the concentration at which inhibition is half-maximal.

As for `CCC(=O)OC[C@H]1O[C@@H](n2c(I)cc(=O)[nH]c2=O)[C@H](O)[C@@H]1O`, the outcome with Plasmodium chabaudi [1] was inactive. The IC50 in the series on Plasmodium falciparum [2] was determined as 85 µM.
In the case of `O=c1cc(I)n([C@@H]2O[C@H](CO)[C@@H](O)[C@H]2O)c(=O)[nH]1`, the result in the series with Plasmodium falciparum [3], in the series with Plasmodium chabaudi [13] and with Plasmodium chabaudi [16] was inactive. The Activity entry in the series on CHO [4] is reported as “Toxic”; with Mus musculus [6] it was “Toxic”; in the series with Mus musculus [7] it was “Toxic”; with Mus musculus [8], “Non-toxic”; in series [18], “Toxic”; in the series on C32 it was “Non-toxic”. In [5], the Selectivity Index stood at 2. The result in the series with Plasmodium berghei [9], with Plasmodium berghei [10], in the series with Plasmodium berghei [11], with Plasmodium berghei [12], in the series with Plasmodium chabaudi [14] and in the series on Plasmodium berghei [15] was Active. The result in the series with Plasmodium falciparum [17] was Active. For the same compound, in the series with Plasmodium falciparum [19], the “growth inhibition (GI)” value is “Active”. Further, the selectivity ratio in series [20] amounted to 38; in series [22] it was 35. Also, the IC50 in the series on Plasmodium falciparum [21] stood at 13.2 µM; in the series with Plasmodium falciparum [23], 11.2 µM; with CHO [24] it was 491 µM; in the series with Plasmodium chabaudi [25] it was 300 µM; in the series with Plasmodium falciparum [2], 56.5 µM; in the series with Plasmodium berghei [26], 303 µM. Further, the IC50 worked out at 29.1 µM in the series on Plasmodium falciparum [27]; 18.7 µM with Plasmodium falciparum [28]; 1.4 µM with Plasmodium falciparum [29]; 2.3 µM in the series with Plasmodium falciparum [30]; 1.2 µM in the series on Plasmodium falciparum [31]; 27 µM with Plasmodium falciparum [32].
`CC[C@H]1OC(=O)[C@H](C)[C@@H](O[C@H]2C[C@@](C)(OC)[C@@H](O)[C@H](C)O2)[C@H](C)[C@@H](O[C@@H]2O[C@H](C)C[C@H](N(C)C)[C@H]2O)[C@](C)(O)C[C@@H](C)CN(C)[C@H](C)[C@@H](O)[C@]1(C)O`: the result in the series on Plasmodium berghei [33] was inactive.
On to `C[n+]1cnn(CCCCCCCCCCCCn2c[n+](C)cn2)c1`, for which, in the series with Plasmodium berghei [26], the outcome was Active.
Consider `CCCC(=O)OC[C@H]1O[C@@H](n2c(I)cc(=O)[nH]c2=O)[C@H](O)[C@@H]1O`, for which, in the series on Plasmodium chabaudi [34], the outcome was Active. For the same compound, it took 166 µM to reach half-maximal inhibition in the series with Plasmodium falciparum [2] (IC50).
